According to patent US6462024B1, “Use of inhibitors of the sodium-hydrogen exchanger for the production of a medicament for decreasing undesired effects of substrates of the heart” (Aventis Pharma Deutschland GmbH, priority 1997, dated 2002):
“Also recorded” adds a separate entry of the source.

Tested on: isolated functioning rat heart
Experiment: low flow ischemia and reperfusion in the isolated functioning rat heart (working-heart mode)
Design: species or system Wistar-Kyoto rats
Conditions: for Incidence of ventricular fibrillations (VF) / Mean duration of ventricular fibrillations (VF) / Incidence of ventricular tachycardias (VT) / Mean duration of ventricular tachycardias and fibrillations (VT + VF): cariporide 1 μmol/l, Rulide 20 mg/kg oral; for incidence of ventricular fibrillation during the reperfusion phase / length of ventricular arrhythmias during the reperfusion phase: macrolide (Rulide) group versus macrolide-pretreated hearts treated with cariporide
Description: All investigations were carried out using hearts of Wistar-Kyoto rats (300-400 g body weight, BW). The rats were kept on a standard diet and had free access to water. The rats were anesthetized with pentobartital (60 mg/kg, i.p.), heparinized (500 I.U./100 g BW i.p.) and respirated with room air via a cannula which was inserted into the trachea. The thorax was then opened, and the heart was removed and placed in a 4° C. physiological solution. After cannulation of the aorta, the hearts were suspended in the unit and perfused in a retrograde manner according to the Langendorff method with an oxygenated (95% O2, 5% CO2), noncirculating Tyrode solution (in mmol/l: NaCl 124.6; KCl 4.0; CaCl2 2.2; MgCl2 1.1; NaHCO3 24.9; NaH2PO4 0.3; glucose 11.1) using a perfusion pressure of 51 mm Hg. The pulmonary artery and the left auricle were then cannulated and all pulmonary veins were ligated close to the auricle. After an equilibration phase of 15 minutes, the retrograde perfusion was changed into an anterograde perfusion (working-heart mode). At the same time, the filling pressure was adjusted to 11 mm Hg and the afterload to 51 mm Hg. The hearts were paced during the entire experiment at a frequency of 5 Hz. After 15 minutes in the working mode, the coronary flow was reduced by 90% in order to include a global low flow ischemia. The aortic pressure drops from 51 to 11 mm Hg in the course of this. This situation represents an angina pectoris attack in the patient. The low flow ischemia lasted 30 minutes. The hearts were then reperfused for 15 minutes in the Langendorff mode and for a further 15 minutes in the working mode. All animals received oral Rulide (macrolide, 20 mg/kg) dissolved in 1 ml of olive oil, or only 1 ml of olive oil (control), before the experiments. The Na^+/H^+ exchange inhibitor cariporide (1 μmol/l) and its vehicle (Tyrode solution) were added directly to the perfusion solution, i.e. immediately before the latter flows into the heart. The computer-controlled infusion of cariporide and the vehicle solution was begun 15 minutes before low flow ischemia and lasted for the entire experiment. The infusion quantity was 1:100th of the heart minute volume. The following parameters were measured 15 minutes before ischemia and at the end of the reperfusion phase: left ventricular pressure (LVP), left auricle pressure (LAP), aortic pressure (AP), heart-time volume (HTV), coronary flow (CF), aortic flow (AF), heart rate (HR), contractility (dP/dtmax), left ventricular pressure increase (LVPI) and the external heart work (EHW). From these values, the recovery (values after reperfusion based on the starting values before ischemia in %) was calculated. Moreover, the ECG was recorded during the entire experiment and the sum of the individual arrhythmia intervals (ventricular tachycardias and ventricular fibrillations) over the entire experimental period was formed.

[1] = pretreatment with Rulide, ischemia and reperfusion

| recovery compared with the control group [1] | Structure (SMILES) | effect on the arrhythmias during ischemia (during ischemia) | Incidence of ventricular fibrillations (VF) (during ischemia) | Mean duration of ventricular fibrillations (VF) (during ischemia) | Incidence of ventricular fibrillations (VF) (during reperfusion) | Incidence of ventricular tachycardias (VT) (during reperfusion) | Mean duration of ventricular tachycardias and fibrillations (VT + VF) (during reperfusion) | incidence of ventricular fibrillation during the reperfusion phase | length of ventricular arrhythmias during the reperfusion phase | cardiotoxic effect of the macrolide (pretreatment of the heart with cariporide, ischemia and reperfusion) | incidence and duration of ventricular arrhythmias compared with the control group [1] |
| --- | --- | --- | --- | --- | --- | --- | --- | --- | --- | --- | --- |
| – | CC(C)c1ccc(C(=O)NC(=N)N)cc1S(C)(=O)=O [Cariporide (HOE642), cariporide] | no effect | 33% | 38 ± 26 s | 0% | 100% | 204 ± 32 s | 38% | 198 s | completely prevented; also recorded: completely inhibits | – |
| further impairment of recovery | CC[C@H]1OC(=O)[C@H](C)[C@@H](O[C@H]2C[C@@](C)(OC)[C@@H](O)[C@H](C)O2)[C@H](C)[C@@H](O[C@@H]2O[C@H](C)C[C@H](N(C)C)[C@H]2O)[C@](C)(O)C[C@@H](C)/C(=N\OCOCCOC)[C@H](C)[C@@H](O)[C@]1(C)O [Rulide, reference compound] | – | 100% | 181 ± 79 s | 100% | 100% | 1709 ± 319 s | 100% | 1709 s | – | increase in the incidence and the duration of ventricular arrhythmias |
